Calls of active or inactive are those of the source. The rule behind the calls is not given here.
Experiments:
Homo sapiens [1] = species on record: Homo sapiens; test: Inhibition of calcineurin phosphatase activity in absence of calmodulin at 1 uM
Homo sapiens [2] = species on record: Homo sapiens; test: Inhibition of calcineurin phosphatase activity in presence of calmodulin at 1 uM

Activity (Homo sapiens [1]) | Activity (Homo sapiens [2]) | Compound
inactive | Active | CC(C)C[C@H](NC(=O)[C@H](CCCCN)NC(=O)[C@H](CC(C)C)NC(=O)[C@H](CC(C)C)NC(=O)[C@H](CCCCN)NC(=O)[C@H](Cc1ccc(O)cc1)NC(=O)[C@H](Cc1ccccc1)NC(=O)[C@H](CC(C)C)NC(=O)[C@H](CCCNC(=N)N)NC(=O)[C@H](C)NC(=O)[C@H](CC(C)C)NC(=O)[C@H](CCCCN)NC(=O)[C@H](CCCCN)NC(=O)[C@@H](N)CC(C)C)C(=O)O
inactive | Dose-dependent effect | H-LKKLIRLAYKLLKL-OH
inactive | Dose-dependent effect | H-LKKLIRLFTKLLKL-OH
inactive | Dose-dependent effect | H-LKKLLKLLKKLLKL-OH

From ChEMBL document CHEMBL1144580, “Screening of alpha-helical peptide ligands controlling a calcineurin-phosphatase activity” (Bioorg Med Chem Lett, 2007)
